Results as given in publication PMC9181938, “Fluorinated Analogues of Lepidilines A and C: Synthesis and Screening of Their Anticancer and Antiviral Activity” (Molecules, 2022).
Where two headings read alike, the source gives them in different places.

Assays:
[1] = test system: Human adenovirus 5 (AdV5); assay: Antiviral screening at 10 µM; type: cell-based; conditions: AdV5-infected cells
Description: (§1) Antiviral properties of compounds 1a, 1c, 1a[PF6], 1c[PF6], 9b[PF6], 9c[PF6], 10a–10d, 2a, and 2b were assessed against five viruses: Human herpesvirus 1 (HSV-1, VR-539), Human parainfluenza virus type 3 (HPIV-3, VR-93), Human adenovirus 5 (AdV5, VR-5), Human herpesvirus 5 (HCMV, VR-977), and Encephalomyocarditis virus (EMCV, VR-1479). Viruses were purchased from the American Type Culture Collection (ATCC, Manassas, VA, USA).
(§2) All tested compounds were dissolved in DMSO (dimethyl sulfoxide, Sigma-Aldrich, Darmstadt, Germany) and then suspended in Minimum Essential Medium (MEM; Sigma-Aldrich, Darmstadt, Germany) supplemented with 2% heat-inactivated fetal bovine serum (FBS; Sigma-Aldrich, Darmstadt, Germany), 2 mM L-glutamine (Sigma-Aldrich, Darmstadt, Germany), and 100 units/mL penicillin G with […] streptomycin (Sigma-Aldrich, Darmstadt, Germany).
(§3) Vero, LLC-MK2, NCTC clone 929, MRC-5, and HeLa cells were propagated in Minimum Essential Medium (MEM; Sigma-Aldrich, Darmstadt, Germany) supplemented with 10% heat-inactivated fetal bovine serum (FBS; Sigma-Aldrich, Darmstadt, Germany) and 100 units/mL penicillin G with […] streptomycin (Sigma-Aldrich, Darmstadt, Germany). Upon reaching 80–90% confluency, cells were harvested with 0.25% trypsin in 1 mM EDTA (Life Technologies, Warsaw, Poland) and seeded onto 96-well microplates at 2 × 10^5 cells/mL. After overnight incubation of cells at 37 °C in a humidified atmosphere containing 5% CO2, the culture medium was removed, and cells were inoculated with the respective virus solution in MEM supplemented with 2% FBS and antibiotics (HSV-1 MOI 0.005, 1000 virions/mL; HPIV-3 MOI 0.01, 2000 virions/mL; AdV5 MOI 0.005, 1000 virions/mL, EMCV MOI 0.005, 1000 virions/mL, HCMV 20 PFU (plaque forming units) per well). After a 1-h (HSV-1, HPIV-3, AdV5, and EMCV) or 2-h adsorption period (HCMV), the residual virus was removed, and the infected cells were further incubated with a 100 μL freshly prepared solution of tested compounds diluted with a maintenance medium supplemented with 2% FBS to obtain compound concentrations of 10 µM. The final concentration of DMSO in the medium was 0.1%. All experiments were carried out in triplicate. The cells monolayers were incubated with the compounds at 37 °C in a humidified atmosphere containing 5% CO2 until the typical cytopathic effect (CPE) was visible. Viral infection was evaluated by the MTT assay or plaque reduction assay (HCMV). After incubation with drugs, the cells were treated with 3-(4,5-dimethylthiazol-2-yl)-2,5-diphenyltetrazolium bromide dye solution (MTT, Sigma-Aldrich, Darmstadt, Germany) (25 μL, 5 mg/mL) for 2 h and lysed with solvent solution (100 μL) containing: DMF (Sigma-Aldrich, Darmstadt, Germany) (45 mL), SDS (Sigma-Aldrich, Darmstadt, Germany) (13.5 g), and distilled water (55 mL). After overnight incubation at 37 °C, the optical density at 550 nm and a reference wavelength of 670 nm were measured on a microplate spectrophotometer, Varioskan Lux (Thermo Fisher Scientific, Waltham, MA, USA). The number of HCMV plaques was counted under an inverted microscope Olympus IX73 (Olympus, Tokyo, Japan).

[2] = test system: Human herpesvirus 1 (HSV-1); assay: Antiviral screening at 10 µM; type: cell-based; conditions: antiviral screening, HSV-1-infected cells
Description: as §1, §2, §3

[3] = test system: Encephalomyocarditis virus (EMCV); assay: Antiviral screening at 10 µM; type: cell-based; conditions: Cardiovirus A, EMCV-infected cells, read-out: Cell line (viability %) EMCV
Description: as §1, §2, §3

[4] = test system: Human parainfluenza virus type 3 (HPIV-3); assay: Antiviral screening at 10 µM; type: cell-based; conditions: antiviral screening, HPIV-3-infected cells
Description: as §1, §2, §3

[5] = Cytotoxicity MTT assay (0.1–1000 µM), CC50; type: cell-based, Macaca mulatta; conditions: Macaca mulatta, LLC-MK2 cells, LLC-MK2, MTT, 48 h; read-out: CC50 Normal Cell Lines LLC-MK2
LLC-MK2 cells = assay: Cytotoxicity MTT assay (0.1–1000 µM), CC50; type: cell-based, Macaca mulatta; conditions: Table S2, range 0.1-1000 µM, LLC-MK2; read-out: Cell line (CC50 M) LLC-MK2
[6] = test system: Human parainfluenza virus type 3 (HPIV-3); assay: Antiviral activity assay (0.1–1000 µM), IC50; type: cell-based
Description: as §1, with “1e–1g, 1e[PF6], 8a–8d,” for “1a, 1c, 1a[PF6], 1c[PF6], 9b[PF6], 9c[PF6], 10a–10d, 2a,”, “9a” for “2b”
as §2
(§4) Investigated cells were propagated in Minimum Essential Medium (MEM; Sigma-Aldrich, Darmstadt, Germany) supplemented with 10% heat-inactivated fetal bovine serum (FBS; Sigma-Aldrich, Darmstadt, Germany) and 100 units/mL penicillin G with […] streptomycin (Sigma-Aldrich, Darmstadt, Germany). After reaching 80–90% confluency, cells were harvested with trypsin (Life Technologies, Warsaw, Poland) and seeded into 96-well microplates at 2 × 10^5 cells/mL after overnight incubation of cells at 37 °C in a humidified atmosphere containing 5% CO2.
(§5) The culture medium was removed from confluent cells grown in 96-well microplates, and the cells were inoculated with virus solutions in MEM supplemented with 2% FBS and antibiotics (HSV-1 MOI 0.005, 1000 virions/mL; HPIV-3 MOI 0.01, 2000 virions/mL; AdV5 MOI 0.005, 1000 virions/mL; EMCV 0.005, 1000 virions/mL; HCMV 20 PFU/well (plaque-forming units per well). After a 1-h (HSV-1, HPIV-3, AdV5, and EMCV) or 2-h adsorption period (HCMV), residual viral particles were removed, and infected cells were further incubated with MEM supplemented with 2% FBS containing compound concentrations in the range from 0.1 to 1000 µM [38]. All experiments were carried out in triplicate. The cell monolayers were incubated with the investigated compounds at 37 °C in a humidified atmosphere containing 5% CO2 until a cytopathic effect (CPE) was visible. Viral infection was evaluated by the MTT assay (as described previously) or plaque reduction assay. HCMV plaques were counted under an inverted microscope, Olympus IX73 (Olympus, Tokyo, Japan). Antiviral activity was expressed as the concentration required to reduce the number of viral plaques to 50% of the control (virus-infected but untreated).

NCTC clone 929 cells = assay: Cytotoxicity screening at 10 µM (MTT); type: cell-based, Mus musculus; conditions: 48 h
[7] = Cytotoxicity screening at 10 µM (MTT); type: cell-based, Human; conditions: human, MRC-5 cells, read-out: Cell line (viability %) MRC-5
[8] = Cytotoxicity screening at 10 µM (MTT); type: cell-based, Macaca mulatta; conditions: Macaca mulatta, LLC-MK2 cells, read-out: Cell line (viability %) LLC-MK2
[9] = Cytotoxicity screening at 10 µM (MTT); type: cell-based, Human; conditions: human, HeLa cells, read-out: Cell line (viability %) HeLa
[10] = Cytotoxicity screening at 10 µM (MTT); type: cell-based, Cercopithecus aethiops; conditions: Cercopithecus aethiops, Vero cells, read-out: Cell line (viability %) Vero
[11] = Cytotoxicity MTT assay (0.1–1000 µM), CC50; type: cell-based, Human; conditions: human, A549 cells, read-out: CC50 Cancer Cell Lines A549
[12] = Cytotoxicity MTT assay (0.1–1000 µM), CC50; type: cell-based, Cercopithecus aethiops; conditions: Cercopithecus aethiops, Vero cells, read-out: CC50 Normal Cell Lines Vero
[13] = Cytotoxicity MTT assay (0.1–1000 µM), CC50; type: cell-based, Human; conditions: human, MRC-5 cells, MRC-5, MTT, read-out: CC50 Normal Cell Lines MRC-5
[14] = test system: Human herpesvirus 5 (HCMV); assay: Antiviral activity assay (0.1–1000 µM), IC50, plaque reduction; type: cell-based; conditions: Human betaherpesvirus 5, 20 PFU/well
Description: as §1, with “1e–1g, 1e[PF6], 8a–8d,” for “1a, 1c, 1a[PF6], 1c[PF6], 9b[PF6], 9c[PF6], 10a–10d, 2a,”, “9a” for “2b”
as §2, §4, §5

[15] = test system: Human adenovirus 5 (AdV5); assay: Antiviral activity assay (0.1–1000 µM), IC50; type: cell-based; conditions: Human mastadenovirus C; AdV5, MOI 0.005; read-out: IC50 AdV5
Description: as §1, with “1e–1g, 1e[PF6], 8a–8d,” for “1a, 1c, 1a[PF6], 1c[PF6], 9b[PF6], 9c[PF6], 10a–10d, 2a,”, “9a” for “2b”
as §2, §4, §5

[16] = test system: Human herpesvirus 1 (HSV-1); assay: Antiviral activity assay (0.1–1000 µM), IC50; type: cell-based; conditions: Human alphaherpesvirus 1; HSV-1, MOI 0.005
Description: as §1, with “1e–1g, 1e[PF6], 8a–8d,” for “1a, 1c, 1a[PF6], 1c[PF6], 9b[PF6], 9c[PF6], 10a–10d, 2a,”, “9a” for “2b”
as §2, §4, §5

[17] = test system: Encephalomyocarditis virus (EMCV); assay: Antiviral activity assay (0.1–1000 µM), IC50; type: cell-based; conditions: Cardiovirus A, MOI 0.005, read-out: IC50 EMCV
Description: as §1, with “1e–1g, 1e[PF6], 8a–8d,” for “1a, 1c, 1a[PF6], 1c[PF6], 9b[PF6], 9c[PF6], 10a–10d, 2a,”, “9a” for “2b”
as §2, §4, §5

[18] = Cytotoxicity MTT assay (0.1–1000 µM), CC50; type: cell-based, Human; conditions: human, HepG2 cells, read-out: CC50 Cancer Cell Lines HepG2
[19] = Cytotoxicity MTT assay (0.1–1000 µM), CC50; type: cell-based, Mus musculus; conditions: Mus musculus, NCTC clone 929 cells, NCTC clone 929, MTT, 48 h; read-out: CC50 Normal Cell Lines NCTC Clone 929
[20] = Cytotoxicity MTT assay (0.1–1000 µM), CC50; type: cell-based, Human; conditions: human, HeLa cells, MTT, 48 h, read-out: CC50 Cancer Cell Lines HeLa
[21] = Human respirovirus 3, HPIV-3, MOI 0.01, read-out: IC50 HPIV-3

Row | IC50 [14] | IC50 [15] | IC50 [16] | IC50 [17] | IC50 [6, 21] | melting point | Structure (SMILES) | CC50 at 48 h [5] | CC50 at 48 h [11] | CC50 at 48 h [12] | CC50 at 48 h [13] | CC50 at 48 h [18] | CC50 at 48 h [19] | CC50 at 48 h [20] | other results
1 |  |  |  |  |  |  | Cc1c(C)[n+](Cc2ccccc2)cn1Cc1ccccc1 [Compound 1a, lepidiline A, reference compound] | < 80 µM |  |  |  |  |  |  | Cell line (viability %) AdV5 [1]: 45.8%; Cell line (viability %) HSV-1 [2]: 48.0%; viability at 10 µM [3]: 7.4%; Cell line (viability %) HPIV-3 [4]: 86.0%; CC50 (LLC-MK2 cells): 67.7 ± 2.52 µM; IC50 ([6]; Table S4, range 0.1-1000 µM, HPIV-3, read-out: IC50 (M) HPIV-3): > 6.77e-05 M; Cell line (viability %) NCTC clone 929 (NCTC clone 929 cells): 86.0%; viability at 48 h, 10 µM [7]: 90.2%; viability at 48 h, 10 µM [8]: 76.3%; viability at 48 h, 10 µM [9]: 43%; viability at 48 h, 10 µM [10]: 90.5%
2 | > 36.7 µM | > 0.039 µM | > 38 µM | > 48.3 µM | > 5.9e-05 M | 108 to 110 °C | Cc1c(C)[n+](Cc2cccc(OC(F)(F)F)c2)cn1Cc1ccccc1.[Cl-] [Compound 1f, 1-Benzyl-4,5-dimethyl-3-[3-(trifluoromethoxy)benzyl]imidazolium chloride] | 59 ± 1 µM | 1.6 ± 0.173 µM | 38 ± 4 µM | 36.7 ± 2.31 µM | 152 ± 2 µM | 48.3 ± 2.89 µM | 0.039 ± 0.001 µM | 
3 | > 206 µM | > 20 µM | > 250 µM | > 257 µM | > 0.000327 M | 124 to 126 °C | Cc1c(C)[n+](OCc2ccccc2)cn1Cc1cccc(F)c1.[Br-] [Compound 8a, 3-Benzyloxy-1-(3-fluorobenzyl)-4,5-dimethylimidazolium bromide] | 327 ± 7.64 µM | 7.5 ± 0.5 µM | 250 ± 10 µM | 206 ± 8.61 µM | 361.7 ± 2.89 µM | 257 ± 10.4 µM | 20 ± 3.46 µM | 
